In patent publication US4245106A, “Process for the preparation of 1-alkyl-3-aryl-4-pyrazolecarboxylates” (Monsanto Company, priority 1979, dated 1981):

Key:
Format in all cases: in vivo
Barnyard grass [1] = experiment: pre-emergent herbicidal activity test
Description: (§1) Table II summarizes results of tests conducted to determine the pre-emergent as well as the post-emergent herbicidal activity of the compounds. The pre-emergent test was conducted as follows:
(§2) A good grade of top soil was placed in aluminum pans and compacted to a depth of three-eighths to one-half inch from the top of the pan. On the top of the soil was placed a predetermined number of seeds or vegetative propagules of various plant species. The soil required to level fill the pans after seeding or adding vegetative propagules was weighed into a pan. A known amount of the active ingredient applied in a solvent or as a wettable powder and the soil were thoroughly mixed, and used as a cover layer for prepared pans. After treatment the pans were moved into a greenhouse bench where they were watered from below as needed to give adequate moisture for germination and growth.
(§3) A herbicial rating code was used to signify the extent of phytotoxicity of each species. The rating are defined as follows: […]

Bromus tectorum [2] = experiment: pre-emergent herbicidal activity test
Description: as §1, §2, §3

Canada Thistle [3] = experiment: pre-emergent herbicidal activity test
Description: as §1, §2, §3

Cocklebur [4] = experiment: pre-emergent herbicidal activity test
Description: as §1, §2, §3

Johnsongrass [5] = experiment: pre-emergent herbicidal activity test
Description: as §1, §2, §3

Lambsquarter [6] = experiment: pre-emergent herbicidal activity test
Description: as §1, §2, §3

Morningglory [7] = experiment: pre-emergent herbicidal activity test
Description: as §1, §2, §3

Nutsedge [8] = experiment: pre-emergent herbicidal activity test
Description: as §1, §2, §3

Quackgrass [9] = experiment: pre-emergent herbicidal activity test
Description: as §1, §2, §3

Smartweed [10] = experiment: pre-emergent herbicidal activity test
Description: as §1, §2, §3

Velvetleaf [11] = experiment: pre-emergent herbicidal activity test
Description: as §1, §2, §3

Barnyard grass [12] = experiment: post-emergent herbicidal activity test
Description: (§4) The post-emergent tests were conducted as follows. The active ingredients are applied in spray form to two or three-week old specimens of various plant species. The spray, a solution or wettable powder suspension containing the appropriate rate of active ingredient to give the desired test rate and a surfactant, is applied to the plants. The treated plants are placed in a greenhouse and unless otherwise noted approximately four weeks later the effects are observed and recorded.

Bromus tectorum [13] = experiment: post-emergent herbicidal activity test
Description: as §4

Canada Thistle [14] = experiment: post-emergent herbicidal activity test
Description: as §4

Cocklebur [15] = experiment: post-emergent herbicidal activity test
Description: as §4

Johnsongrass [16] = experiment: post-emergent herbicidal activity test
Description: as §4

Lambsquarter [17] = experiment: post-emergent herbicidal activity test
Description: as §4

Morningglory [18] = experiment: post-emergent herbicidal activity test
Description: as §4

Nutsedge [19] = experiment: post-emergent herbicidal activity test
Description: as §4

Quackgrass [20] = experiment: post-emergent herbicidal activity test
Description: as §4

Smartweed [21] = experiment: post-emergent herbicidal activity test
Description: as §4

Velvetleaf [22] = experiment: post-emergent herbicidal activity test
Description: as §4

[23] = *11.2 Kg/Ha, observed approximately 14 days after treatment
[24] = 11.2 Kg/Ha, approximately 28 days after seeding and treating
[25] = 11.2 Kg/Ha, approximately four weeks later
Also: ranges in brackets are in %.

Cn1cc(C(=O)OCC2CC(F)(F)C2(F)F)c(-c2cccc(C(F)(F)F)c2)n1 (stereo not drawn) [Example 18]
2 (50-74): Pre-Emergent herbicidal rating, E Lambsquarter (Lambsquarter [6]; [23]) | Pre-Emergent herbicidal rating, F Smartweed (Smartweed [10]; [23]) | Post-Emergent herbicidal rating, E Lambsquarter (Lambsquarter [17]; [23]) | Post-Emergent herbicidal rating, D Morningglory (Morningglory [18]; [23]) | Post-Emergent herbicidal rating, C Velvetleaf (Velvetleaf [22]; [23])
1 (25-49): Pre-Emergent herbicidal rating, K Barnyard grass (Barnyard grass [1]; [23]) | Pre-Emergent herbicidal rating, J Bromus tectorum (Bromus tectorum [2]; [23]) | Pre-Emergent herbicidal rating, A Canada Thistle (Canada Thistle [3]; [23]) | Pre-Emergent herbicidal rating, D Morningglory (Morningglory [7]; [23]) | Pre-Emergent herbicidal rating, C Velvetleaf (Velvetleaf [11]; [23]) | Post-Emergent herbicidal rating, K Barnyard grass (Barnyard grass [12]; [23]) | Post-Emergent herbicidal rating, J Bromus tectorum (Bromus tectorum [13]; [23]) | Post-Emergent herbicidal rating, A Canada Thistle (Canada Thistle [14]; [23]) | Post-Emergent herbicidal rating, B Cocklebur (Cocklebur [15]; [23]) | Post-Emergent herbicidal rating, I Johnsongrass (Johnsongrass [16]; [23]) | Post-Emergent herbicidal rating, H Quackgrass (Quackgrass [20]; [23]) | Post-Emergent herbicidal rating, F Smartweed (Smartweed [21]; [23])
0 (0-24): Pre-Emergent herbicidal rating, B Cocklebur (Cocklebur [4]; [23]) | Pre-Emergent herbicidal rating, I Johnsongrass (Johnsongrass [5]; [23]) | Pre-Emergent herbicidal rating, G Nutsedge (Nutsedge [8]; [23]) | Pre-Emergent herbicidal rating, H Quackgrass (Quackgrass [9]; [23]) | Post-Emergent herbicidal rating, G Nutsedge (Nutsedge [19]; [23])

C=C(Cl)COC(=O)c1cn(C)nc1-c1cccc(C(F)(F)F)c1 [Example 19]
1 (25-49): Pre-Emergent herbicidal rating, J Bromus tectorum (Bromus tectorum [2]; [23]) | Pre-Emergent herbicidal rating, A Canada Thistle (Canada Thistle [3]; [23]) | Pre-Emergent herbicidal rating, I Johnsongrass (Johnsongrass [5]; [23]) | Pre-Emergent herbicidal rating, D Morningglory (Morningglory [7]; [23]) | Pre-Emergent herbicidal rating, G Nutsedge (Nutsedge [8]; [23]) | Pre-Emergent herbicidal rating, H Quackgrass (Quackgrass [9]; [23]) | Pre-Emergent herbicidal rating, C Velvetleaf (Velvetleaf [11]; [23]) | Post-Emergent herbicidal rating, K Barnyard grass (Barnyard grass [12]; [23]) | Post-Emergent herbicidal rating, A Canada Thistle (Canada Thistle [14]; [23]) | Post-Emergent herbicidal rating, B Cocklebur (Cocklebur [15]; [23]) | Post-Emergent herbicidal rating, I Johnsongrass (Johnsongrass [16]; [23]) | Post-Emergent herbicidal rating, E Lambsquarter (Lambsquarter [17]; [23]) | Post-Emergent herbicidal rating, D Morningglory (Morningglory [18]; [23]) | Post-Emergent herbicidal rating, F Smartweed (Smartweed [21]; [23]) | Post-Emergent herbicidal rating, C Velvetleaf (Velvetleaf [22]; [23])
2 (50-74): Pre-Emergent herbicidal rating, K Barnyard grass (Barnyard grass [1]; [23]) | Pre-Emergent herbicidal rating, F Smartweed (Smartweed [10]; [23])
3 (75-100): Pre-Emergent herbicidal rating, E Lambsquarter (Lambsquarter [6]; [23])
0 (0-24): Pre-Emergent herbicidal rating, B Cocklebur (Cocklebur [4]; [23]) | Post-Emergent herbicidal rating, J Bromus tectorum (Bromus tectorum [13]; [23]) | Post-Emergent herbicidal rating, G Nutsedge (Nutsedge [19]; [23]) | Post-Emergent herbicidal rating, H Quackgrass (Quackgrass [20]; [23])

CCC(C)OC(=O)c1cn(C)nc1-c1cccc(C(F)(F)F)c1 (stereo not drawn) [Example 20]
1 (25-49): Pre-Emergent herbicidal rating, F Smartweed (Smartweed [10]; [24]) | Post-Emergent herbicidal rating, A Canada Thistle (Canada Thistle [14]; [25]) | Post-Emergent herbicidal rating, B Cocklebur (Cocklebur [15]; [25]) | Post-Emergent herbicidal rating, I Johnsongrass (Johnsongrass [16]; [25]) | Post-Emergent herbicidal rating, C Velvetleaf (Velvetleaf [22]; [25])
0 (0-24): Pre-Emergent herbicidal rating, J Bromus tectorum (Bromus tectorum [2]; [24]) | Pre-Emergent herbicidal rating, A Canada Thistle (Canada Thistle [3]; [24]) | Pre-Emergent herbicidal rating, B Cocklebur (Cocklebur [4]; [24]) | Pre-Emergent herbicidal rating, I Johnsongrass (Johnsongrass [5]; [24]) | Pre-Emergent herbicidal rating, D Morningglory (Morningglory [7]; [24]) | Pre-Emergent herbicidal rating, G Nutsedge (Nutsedge [8]; [24]) | Pre-Emergent herbicidal rating, H Quackgrass (Quackgrass [9]; [24]) | Pre-Emergent herbicidal rating, C Velvetleaf (Velvetleaf [11]; [24]) | Post-Emergent herbicidal rating, K Barnyard grass (Barnyard grass [12]; [25]) | Post-Emergent herbicidal rating, J Bromus tectorum (Bromus tectorum [13]; [25]) | Post-Emergent herbicidal rating, D Morningglory (Morningglory [18]; [25]) | Post-Emergent herbicidal rating, G Nutsedge (Nutsedge [19]; [25]) | Post-Emergent herbicidal rating, H Quackgrass (Quackgrass [20]; [25]) | Post-Emergent herbicidal rating, F Smartweed (Smartweed [21]; [25])
2 (50-74): Post-Emergent herbicidal rating, E Lambsquarter (Lambsquarter [17]; [25])
3 (75-100): Pre-Emergent herbicidal rating, K Barnyard grass (Barnyard grass [1]; [24]) | Pre-Emergent herbicidal rating, E Lambsquarter (Lambsquarter [6]; [24])
